Assays:
Cannabinoid receptor 1 [1] = biological target: T1, Cannabinoid receptor 1 (Homo sapiens, UniProt P21554); test: Displacement of human recombinant CB1 receptor expressed in HEK293 cell membranes incubated for 90 mins by radioligand binding assay; format: cell-based
Cannabinoid receptor 1 [2] = biological target: T1, Cannabinoid receptor 1; test: Displacement of human recombinant CB1 receptor expressed in HEK293 cell membranes incubated for 90 mins by Cheng-Prusoff equation based analysis
Cannabinoid receptor 2 [3] = biological target: T2, Cannabinoid receptor 2 (Homo sapiens, UniProt P34972); details: HEK293, at 10 µM
Description: Maximum displacement of human recombinant CB2 receptor expressed in HEK293 cell membranes at 10 uM incubated for 90 mins by radioligand binding assay

Cannabinoid receptor 1 [4] = biological target: T1, Cannabinoid receptor 1; details: HEK293, at 10 µM
Description: Maximum displacement of human recombinant CB1 receptor expressed in HEK293 cell membranes at 10 uM incubated for 90 mins by radioligand binding assay

Cannabinoid receptor 2 [5] = biological target: T2, Cannabinoid receptor 2; test: Displacement of human recombinant CB2 receptor expressed in HEK293 cell membranes incubated for 90 mins by Cheng-Prusoff equation based analysis
Cannabinoid receptor 2 [6] = biological target: T2, Cannabinoid receptor 2; test: Displacement of human recombinant CB2 receptor expressed in HEK293 cell membranes incubated for 90 mins by radioligand binding assay; format: cell-based
HEK293 = test: Selectivity index, ratio of Ki for human recombinant CB1 receptor expressed in HEK293 cell membranes to Ki for human recombinant CB2 receptor expressed in HEK293 cell membranes; format: cell-based

T2 sequence (P34972 whole entry): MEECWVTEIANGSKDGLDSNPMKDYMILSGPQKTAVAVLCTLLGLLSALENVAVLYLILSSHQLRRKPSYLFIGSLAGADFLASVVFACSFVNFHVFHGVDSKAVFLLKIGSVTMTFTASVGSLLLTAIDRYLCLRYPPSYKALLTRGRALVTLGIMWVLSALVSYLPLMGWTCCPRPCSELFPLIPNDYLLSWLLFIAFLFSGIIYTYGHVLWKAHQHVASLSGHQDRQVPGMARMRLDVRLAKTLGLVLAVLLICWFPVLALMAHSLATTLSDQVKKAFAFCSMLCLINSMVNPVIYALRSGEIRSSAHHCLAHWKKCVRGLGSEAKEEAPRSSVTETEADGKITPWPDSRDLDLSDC
T1 sequence (P21554 whole entry): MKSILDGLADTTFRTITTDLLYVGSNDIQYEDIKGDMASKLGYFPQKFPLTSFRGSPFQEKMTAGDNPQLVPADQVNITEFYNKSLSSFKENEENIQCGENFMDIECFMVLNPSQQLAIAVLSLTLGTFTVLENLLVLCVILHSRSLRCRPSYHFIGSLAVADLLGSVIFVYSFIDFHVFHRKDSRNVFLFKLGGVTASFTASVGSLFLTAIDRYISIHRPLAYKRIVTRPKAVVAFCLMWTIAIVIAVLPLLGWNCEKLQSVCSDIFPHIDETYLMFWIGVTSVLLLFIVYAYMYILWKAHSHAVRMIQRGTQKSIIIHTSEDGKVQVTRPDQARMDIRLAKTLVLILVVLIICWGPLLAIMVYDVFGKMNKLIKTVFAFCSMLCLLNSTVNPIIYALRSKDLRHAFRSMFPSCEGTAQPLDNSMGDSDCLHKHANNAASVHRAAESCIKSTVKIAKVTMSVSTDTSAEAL

| Compound | IC50 (Cannabinoid receptor 1 [1]) [µM] | Ki (Cannabinoid receptor 1 [2]) [µM] | Imax (Cannabinoid receptor 2 [3]) [%] | Imax (Cannabinoid receptor 1 [4]) [%] | Ki (Cannabinoid receptor 2 [5]) [µM] | IC50 (Cannabinoid receptor 2 [6]) [µM] | Ratio Ki (HEK293) | log(ratioKi) (HEK293) |
| --- | --- | --- | --- | --- | --- | --- | --- | --- |
| CCNC(=O)NCCCCCOc1ccc2c(c1)OCO2 | > 10 | > 10 | 22.6 | 3.38 | > 10 | > 10 |  |  |
| O=C(/C=C/C=C/c1ccc2ccccc2c1)NC1CC1 | > 10 | > 10 | 58.5 | 18.5 | 0.81 | 3.02 | > 12.2 |  |
| NC(=O)NCCCCCOc1cccc2ccccc12 | > 10 | > 10 | 4.6 | 6.88 | > 10 | > 10 |  |  |
| O=C(/C=C/C=C/c1ccc2ccccc2c1)NCCO | > 10 | > 10 | 54.6 | 4.91 | 1.27 | 4.81 | > 7.87 |  |
| CC1(Cc2ccccc2)COc2cc(C(=O)N3CCCCC3)ccc21 (centres undefined) |  | > 10 |  |  |  |  |  | 1.37 |
| CCCC(C)(C)c1ccc2c(c1)OC(C)(C)[C@@H]1CC=C(C)C[C@@H]21 | > 10 | > 10 | 50 | < 50 | 0.14 | 0.55 | > 71.4 |  |
| CCOC(=O)CNC(=O)/C=C/C=C/c1ccc2c(c1)OCCO2 | > 10 | > 10 | 55.1 | 4.77 | 2.56 | 9.69 | > 3.9 |  |
| CCOC(=O)CNC(=O)CCCCCOc1cccc2ccccc12 | > 10 | > 10 | 0 | 27.7 | > 10 | > 10 |  |  |
| CCNC(=O)NCCCCCOc1ccc2ccccc2c1 | > 10 | > 10 | 27.1 | 9.27 | > 10 | > 10 |  |  |
| CCOC(=O)CNC(=O)/C=C/C=C/c1ccc2c(c1)-c1ccccc1C2 | > 10 | > 10 | 39.1 | 5.47 | > 10 | > 10 |  |  |
| NC(=O)NCCCCCOc1ccc2c(c1)OCO2 | > 10 | > 10 | 22.1 | 2.39 | > 10 | > 10 |  |  |
| O=C(CCCCCOc1ccc2ccccc2c1)NCCO | > 10 | > 10 | 3.6 | 3.65 | > 10 | > 10 |  |  |
| CCNC(=O)NCCCCCSc1ccc2ccccc2c1 | > 10 | > 10 | 68.2 | 16.9 | 0.56 | 2.11 | > 17.9 | 1.3 |
| CCS(=O)(=O)NCCCCCSc1ccc2ccccc2c1 | > 10 | > 10 | 63.3 | 23.6 | 1.32 | 5.02 | > 7.58 |  |
| O=C(CCCCCOc1cccc2ccccc12)NC1CC1 | > 10 | > 10 | 27.8 | 24.7 | > 10 | > 10 |  |  |
| CCS(=O)(=O)NCCCCCOc1cccc2ccccc12 | > 10 | > 10 | 30.9 | 7.86 | > 10 | > 10 |  |  |
| O=C(/C=C/C=C/c1ccc2c(c1)-c1ccccc1C2)NC1CC1 | > 10 | > 10 | 36.1 | 13.6 | > 10 | > 10 |  |  |
| O=C(CCCCCOc1cccc2ccccc12)NCCO | > 10 | > 10 | 14.8 | 27 | > 10 | > 10 |  |  |
| O=C(/C=C/C=C/c1ccc2c(c1)-c1ccccc1C2)NCCO | > 10 | > 10 | 24.2 | 0 | > 10 | > 10 |  |  |
| CCS(=O)(=O)NCCCCCOc1ccc2ccccc2c1 | > 10 | > 10 | 23.7 | 11.9 | > 10 | > 10 |  |  |
| CCOC(=O)CNC(=O)/C=C/C=C/c1ccc2ccccc2c1 | > 10 | > 10 | 48.5 | 2.24 | > 10 | > 10 |  |  |
| O=C(CCCCCOc1ccc2ccccc2c1)NC1CC1 | > 10 | > 10 | 31.4 | 44.8 | > 10 | > 10 |  |  |
| O=C(/C=C/C=C/c1ccc2c(c1)OCCO2)NC1CC1 | > 10 | > 10 | 26.5 | 6.18 | > 10 | > 10 |  |  |
| CCOC(=O)CNC(=O)CCCCCOc1ccc2ccccc2c1 | > 10 | > 10 | 25.5 | 6.46 | > 10 | > 10 |  |  |
| CCNC(=O)NCCCCCOc1cccc2ccccc12 | > 10 | > 10 | 23.8 | 18.5 | > 10 | > 10 |  |  |
| CCS(=O)(=O)NCCCCCOc1ccc2c(c1)OCO2 | > 10 | > 10 | 29.5 | 3.37 | > 10 | > 10 |  |  |
